Entries after “also recorded” stand apart in the source; their conditions may differ.
Key:
SW1 tumors [1] = assay: SW1 tumors in immunodeficient NSG mice fed with or without L-fuc; format: in vivo, mouse
Experimental: Four-to-six-week-old female C3HeN and male C57BL6 mice were purchased from Charles Rivers Laboratories for the indicated experiments. Four-to-six-week-old male NSG mice from the Lau laboratory breeding colony were used for the indicated experiments. Mice were housed in the Comparative Medicine Facility at H. Lee Moffitt Cancer Center and Research Institute. Mouse tumor volumes were measured using length, width and depth divided by 2. Generally, 10 mice were assigned to each indicated treatment cohort, and 1×10^6 melanoma cells were subcutaneously injected into the right rear flanks of the recipient mice. At each experimental endpoint, mice were humanely euthanized using CO2 inhalation in accordance to the American Veterinary Medical Association guidelines. […] All experiments were approved by the Institutional Animal Care and Use Committee (IACUC) in accordance with the National Research Council guidelines.
SW1 murine mouse melanoma cells were subcutaneously injected into the right rear flanks of NSG mice. After 7 days, when the tumors reached ˜150 mm^3, the mice were either supplemented with or without 100 mM L-fucose (Biosynth (Oak Terrace, IL)) via drinking water, which was provided ad libitum. When the tumors reached 2 cm^3, the animals were sacrificed.

SW1 tumors [2] = assay: Anti-PD1 ± L-fucose, SW1 (NRAS-mutant) model in C3H mice; format: in vivo, mouse
Excerpt: Fucosylation of HLA-DRB1 occurs on amino acid N48 (mutation to G abolishes interaction with fucose-binding AAL, lectin) (FIG. 9A). […] To further investigate the efficacy of the combination therapy of L-fucose and anti-PD1 and to see if the combination of L-fucose and anti-PD1 improved the efficacy of either agent alone, two mouse melanoma mouse models were used. The first was the NRAS-mutant melanoma mouse model. Here, C3H mice were pretreated with anti-PD1 and/or L-fucose or a L-fucose pre-dose followed by anti-PD1 antibody (FIG. 11). […] Using a BRAF-mutant melanoma model, the efficacy of the combination therapy was more pronounced. Here C57BL6 mice were challenged with SMI cells (FIG. 11). 7 days post challenge, mice received either a control, anti-PD1, L-fucose, or L-fucose and anti-PD1.
SW1 or SM1 mouse melanoma cells were injected into syngeneic C3H/HeN female or C57BL/6 male mice, respectively. After approximately 7 days, when the mice tumors reached ˜150 mm^3, the mice were either supplemented with or without 100 mM L-fucose (Biosynth (Oak Terrace, IL)) via drinking water, which was provided ad libitum. Simultaneously, the mice were injected either with PBS (control) or anti-PD1 (20 mg/kg, clone RMP1-14, Bioxcell (West Lebanon, NH)) every 3-4 days until endpoint. When the tumors reached ˜2 cm^3, the animals were sacrificed.

[3] = system: Leukocyte Adhesion Deficiency II; settings: L-fuc supplementation; cited from earlier work
1205Lu melanoma cells = assay: LDH-release NK cell killing of pre-treated 1205Lu melanoma cells; format: cell-based; settings: 250 μM pre-treatment, 8 h co-culture, immortalized and primary human NK cells
Experimental: The possibility that tumor fucosylation can directly activate the tumor cell-killing activity of NK cells was explored. To assay for this possibility, a lactate dehydrogenase (LDH)-release-based assay was used in which the fucosylation of LU1205 melanoma cells was modulated prior to co-culture with NK cells. Specifically, primary NK cells isolates (5A) or immortalized NK92 cell line (5B) were co-cultured with 1205Lu melanoma cells that were pre-treated with DMSO, 250 μM pan-fucosyltransferase inhibitor (FUTi), or 250 μM L-fucose for 8 hours. Non-radioactive LDH-release cytotoxicity assay was performed to measure extent of NK cell-mediated killing. […] Immunoblot analysis using AAL lectin (another fucose-binding lectin) was performed to confirm the effects of FUTi (5C) or L-fucose (5D) on 1205Lu cells (96 h treatment). (•: […]) (*: […]).

SW1 tumors [4] = assay: SW1/C3H/HeJ model, L-fucose with anti-CTLA4 or anti-PD1 (FIG. 10); format: in vivo, mouse; settings: oral L-fucose 100 mM from day 14
Experimental: FIGS. 10A and 10B show Oral L-fucose is more tumor suppressive than α-CTLA4 or α-PD1 alone, beginnings of improved effects. SW1 tumor growth curves in mice fed ±100 mM L-fucose treated with either control (PBS) or […] (10A) or α-PD1 (10B). Combinations are color-coded as indicated. N=8 mice per condition. L-fucose was administered in the water starting on day 14 (refreshed twice weekly); α-CTLA4 or α-PD1 was administered (20 mg/kg each) twice weekly starting day 14.

PD-L1 = assay: Flow cytometry of cell surface PD-L1 in melanoma cells; format: cell-based, human or mouse; settings: 250 μM; WM793, SW1, SM1 cells
Excerpt: FIGS. 22A, 22B, 22C, 22D, 22E, and 22F show reduced cell surface class II MHC during anti-PD-1 failure; L-PLA schematic and the effects of L-fucose on tumoral PD-L1 expression and peripheral human CD4^+ T cell fucosylation and IFNγ production/secretion. […] We stained for (i) HLA-DRB1 using anti-HLA-DRB1 followed by (+) oligo-conjugated PLA secondary and (ii) fucosylated glycan using biotinylated (“B”) AAL lectin followed by anti-biotin followed by (−) oligo-conjugated PLA secondary. Ligated PLA oligos were subjected to rolling circle amplification PCR (RCA PCR), giving rise to fluorescent punctae. […] Healthy human donor peripheral CD4^+ T cells were treated with DMSO (D) and 250 μM FUTi (i) or L-fuc (L-f) and subjected to (22E) IB analysis for changes in fucosylation (AAL IB) or (22F) ELISA assay to measure changes in IFNγ production/secretion. *=p-value<0.05.
Indicated cells were treated for 72 h with DMSO, 250 μM fucosyltransferase inhibitor (FUTi) (Millipore Sigma (St. Louis, MO)), or 250 μM of L-fucose (Biosynth (Oak Terrace, IL)). After 72 h, cells were stained with 0.1 μM PKH26 (Millipore Sigma (St. Louis, MO)) prior to fixation in 4% formaldehyde solution. […]

For C[C@H](O)[C@@H](O)[C@@H](O)[C@H](O)C=O [L-fucose], the “tumor growth with vs without L-fuc” value (SW1 tumors [1]) was “no significant differences”, the suppressed tumor growth (SW1 tumors [2]; 100 mM L-fuc alone) was 50-60% and the control of tumor (SW1 tumors [2]; NRAS-mutant model, FIG. 11, single agents) was “effectively control the tumor”. The “tumor suppression compared with anti-PD1” value (SW1 tumors [2]; single agents) was “as much as anti-PD1; also recorded: as well as anti-PD1”, the co-morbidities [3] was “without significant co-morbidities” and the “symptoms of the disorder” value [3] was “can be mitigated”. For the same compound, the “NK cell-mediated tumor-cell killing” value (1205Lu melanoma cells) was “sufficient to induce the tumor-cell killing activity”, the “suppression of melanoma growth compared with checkpoint antibodies” value (SW1 tumors [4]) was “more significantly than anti-CTLA4 or anti-PD1 alone” and the “cell surface PD-L1” value (PD-L1) was “did not find that modulating fucosylation alters”.
